In one assay the test system is A2A. The note with it: cited from earlier work.
The target in assay [1] is T1, adenosine receptor 2A (A2A) (Homo sapiens, UniProt P29274).
T1 construct: CEREP (Poitiers, France), paid service
The assay can be described thus: Competition binding assay using radioactive ligands (CEREP).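 Note: compounds screened at a single fixed 10 µM concentration for displacement of a radioligand.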 The note with it: fixed compound concentration of 10 μM.
Procedure: (§1) Competition binding assay using radioactive ligands and functional assay monitoring cAMP were carried out as a paid service provided by CEREP (Poitiers, France). The functional assays monitoring Ca^2+ flux were carried out as a paid service provided by DiscoveRx (Carlsbad, CA).

Assay [2] concerns the target T1, adenosine receptor 2A (A2A). Kind of assay: Functional assay monitoring Ca2+ flux (DiscoveRx).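 Note: concentration-response testing with 10 µM as highest concentration.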 It counts as cell-based. The note with it: read-out: IC50, Ca2+, M. A general note: A change in cytosolic calcium serves as a functional read-out for many receptors and channels.
Procedure: as §1
For assay [3] the target is unchanged. Kind of assay: Functional antagonist assay monitoring cAMP (CEREP).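 Note: eight-point concentration-response from 0 to 10 µM.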 Format: cell-based. The note with it: concentration-response up to 10 μM; read-out: IC50, cAMP.
Procedure: as §1

Where “and” joins values, the source holds several entries; their conditions need not be identical. Identical values can stand only once.

T1 sequence (P29274 whole entry): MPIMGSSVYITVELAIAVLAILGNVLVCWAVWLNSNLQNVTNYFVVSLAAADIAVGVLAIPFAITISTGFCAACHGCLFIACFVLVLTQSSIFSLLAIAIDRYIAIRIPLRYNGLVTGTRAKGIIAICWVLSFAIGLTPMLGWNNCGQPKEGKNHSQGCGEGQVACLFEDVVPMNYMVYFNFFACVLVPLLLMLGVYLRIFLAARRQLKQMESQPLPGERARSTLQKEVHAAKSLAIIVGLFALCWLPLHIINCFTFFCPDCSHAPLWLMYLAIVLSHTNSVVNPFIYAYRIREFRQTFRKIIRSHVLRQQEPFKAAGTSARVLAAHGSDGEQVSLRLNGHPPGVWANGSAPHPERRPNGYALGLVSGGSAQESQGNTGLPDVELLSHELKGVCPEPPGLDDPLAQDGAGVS

`O=C(/C=C/c1c(-c2ccccc2)nn2ccccc12)N1CCCC[C@@H]1CCO` [FK453]: the IC50 (in general, the point on the concentration scale where inhibition reaches its midpoint) in the assay on A2A is 1.58 µM.

In the case of `c1ccc(-c2cc(-c3ccccc3)c3nc(C4CCCCC4)[nH]c3n2)cc1` [LUF5981], in the assay on A2A, the IC50 is 0.2 µM.

As for `CCOC(=O)C1=C(C)NC(c2ccccc2)=C(C(=O)OCc2ccccc2)C1C#Cc1ccccc1` (centres unmarked) [MRS1191], in the assay with A2A, the IC50 was ~10 µM and 10 µM.

Regarding `CC(=O)CCCCn1c(=O)c2c(ncn2C)n(C)c1=O` [Pentoxifylline], the inhibition at 10 µM in assay [1] was < 50%. Further, the inhibition in assay [2] was < 50%. For the same molecule, in assay [3], the inhibition at up to 10 µM is < 50%. In addition, the IC50 with A2A was ~10 µM.

Regarding `CC(C)[C@H](N)C(=O)OCCOCn1cnc2c(=O)[nH]c(N)nc21` [Valaciclovir], in assay [1], the inhibition at 10 µM is < 50%. The inhibition in assay [2] was < 50%. For the same molecule, in assay [3], the inhibition at up to 10 µM was < 50%.

As to `CC(C)[C@H](N)C(=O)OCC(CO)OCn1cnc2c(=O)nc(N)[nH]c21` (some centres unmarked) [Valganciclovir], in assay [1], the inhibition at 10 µM was < 50%. In addition, the inhibition in assay [2] was < 50%. Besides, the inhibition at up to 10 µM in assay [3] is < 50%.

`Cn1c(=O)c2c(ncn2CC(O)CO)n(C)c1=O` (centres unmarked) [dyphylline]: the concentration for half-maximal inhibition (IC50) in the assay on A2A is ~10 µM.

The record behind these values is article PMC6317804, “The integration of pharmacophore-based 3D QSAR modeling and virtual screening in safety profiling: A case study to identify antagonistic activities against adenosine receptor, A2A, using 1,897 known drugs” (PLoS ONE, 2019).
